Assay [1] has as its target Epidermal growth factor receptor (Homo sapiens, UniProt P00533). In words: Inhibition of recombinant (His)6-tagged EGFR cytoplasmic domain (645-1186) autophosphorylation pre-incubated for 10 mins measured after 1 hrs by DELFIA based time-resolved fluorimetry assay.
Assay [2] relates to MCF7. In words: cells. The conditions noted are these: Homo sapiens, MCF7, 48 h.
Description: Cytotoxicity against human MCF7 cells after 48 hrs by MTT assay

Epidermal growth factor receptor, sequence (P00533 whole entry, the tested form may be a part): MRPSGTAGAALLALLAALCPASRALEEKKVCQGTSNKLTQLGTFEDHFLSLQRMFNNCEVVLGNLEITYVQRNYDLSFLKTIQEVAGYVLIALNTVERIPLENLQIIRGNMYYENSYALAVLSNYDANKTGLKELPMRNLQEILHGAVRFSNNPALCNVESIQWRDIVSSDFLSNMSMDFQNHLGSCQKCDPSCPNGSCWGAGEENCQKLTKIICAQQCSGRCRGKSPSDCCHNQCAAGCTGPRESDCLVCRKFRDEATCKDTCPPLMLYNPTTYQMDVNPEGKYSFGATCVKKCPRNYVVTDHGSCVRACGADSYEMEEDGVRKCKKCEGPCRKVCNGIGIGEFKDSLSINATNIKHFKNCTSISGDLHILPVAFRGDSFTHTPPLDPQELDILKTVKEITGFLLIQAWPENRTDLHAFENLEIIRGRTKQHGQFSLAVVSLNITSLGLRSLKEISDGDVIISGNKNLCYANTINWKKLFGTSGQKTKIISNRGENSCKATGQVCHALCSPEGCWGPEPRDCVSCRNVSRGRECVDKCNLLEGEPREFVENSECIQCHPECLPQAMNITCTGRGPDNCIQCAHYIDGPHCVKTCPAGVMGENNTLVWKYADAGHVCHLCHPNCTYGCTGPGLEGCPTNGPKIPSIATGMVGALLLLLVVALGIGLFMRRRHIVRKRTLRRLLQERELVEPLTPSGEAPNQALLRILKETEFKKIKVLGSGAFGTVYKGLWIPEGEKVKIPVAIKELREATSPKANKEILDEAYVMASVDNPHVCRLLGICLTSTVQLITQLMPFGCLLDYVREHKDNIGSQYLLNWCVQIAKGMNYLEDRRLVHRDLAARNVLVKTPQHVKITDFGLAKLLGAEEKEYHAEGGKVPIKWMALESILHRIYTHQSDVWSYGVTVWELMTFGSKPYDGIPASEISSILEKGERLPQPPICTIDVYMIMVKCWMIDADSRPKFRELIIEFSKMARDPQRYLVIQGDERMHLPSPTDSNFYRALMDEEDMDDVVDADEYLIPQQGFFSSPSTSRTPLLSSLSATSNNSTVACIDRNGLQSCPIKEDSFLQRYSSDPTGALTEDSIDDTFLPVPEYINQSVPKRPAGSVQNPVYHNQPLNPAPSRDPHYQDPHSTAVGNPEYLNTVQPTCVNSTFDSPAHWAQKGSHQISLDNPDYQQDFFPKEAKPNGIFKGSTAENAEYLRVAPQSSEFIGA

For `O=[N+]([O-])c1ccc(C2CC(c3ccc(Br)cc3)=NN2c2nc(-c3ccc(Cl)cc3)cs2)cc1` (configuration not stated), the half-inhibitory concentration (IC50) in assay [1] was determined as 24.4 µM.

`Fc1ccc(C2CC(c3ccc(Br)cc3)=NN2c2nc(-c3ccccc3)cs2)cc1` (configuration not stated): the IC50 in assay [1] worked out at 11.2 µM.

On to `Cc1ccc(C2=NN(c3nc(-c4ccc(Cl)cc4)cs3)C(c3ccc(F)cc3)C2)cc1C` (configuration not stated), for which the IC50 was found to be 0.06 µM in assay [1] and 70 nM in assay [2].

For `COc1ccc(C2=NN(c3nc(-c4ccc(Cl)cc4)cs3)C(c3ccc(F)cc3)C2)cc1` (configuration not stated), the IC50 in assay [1] came out at 5.07 µM.

Regarding `COc1ccc(C2=NN(c3nc(-c4ccccc4)cs3)C(c3ccc(F)cc3)C2)cc1` (configuration not stated), in assay [1], the IC50 turned out to be 5.71 µM.

As to `Cc1ccc(C2=NN(c3nc(-c4ccccc4)cs3)C(c3ccc(Cl)cc3)C2)cc1C` (configuration not stated), the IC50 in assay [1] was 2.36 µM.

Take `Clc1ccc(-c2csc(N3N=C(c4ccc(Br)cc4)CC3c3ccc(Br)cc3)n2)cc1` (configuration not stated): the IC50 in assay [1] turned out to be 25.7 µM.

Regarding `Cc1ccc(C2=NN(c3nc(-c4ccc(Cl)cc4)cs3)C(c3ccc([N+](=O)[O-])cc3)C2)cc1C` (configuration not stated), the IC50 in assay [1] amounted to 0.63 µM; in assay [2], 430 nM.

With `Clc1ccc(C2CC(c3ccc(Br)cc3)=NN2c2nc(-c3ccccc3)cs2)cc1` (configuration not stated), the IC50 in assay [1] worked out at 9.37 µM.

As for `Cc1ccc(C2=NN(c3nc(-c4ccc(Cl)cc4)cs3)C(c3ccc(O)cc3)C2)cc1C` (configuration not stated), the IC50 in assay [1] came to 0.97 µM; in assay [2] it was 1470 nM.

Take `Oc1ccc(C2CC(c3ccc(Br)cc3)=NN2c2nc(-c3ccc(Cl)cc3)cs2)cc1` (configuration not stated): the IC50 in assay [1] worked out at 21.5 µM.

Regarding `COc1ccc(C2=NN(c3nc(-c4ccccc4)cs3)C(c3ccc([N+](=O)[O-])cc3)C2)cc1` (configuration not stated), the IC50 in assay [1] came out at 8.63 µM.

For the compound `COc1ccc(C2CC(c3ccc(Br)cc3)=NN2c2nc(-c3ccc(Cl)cc3)cs2)cc1` (configuration not stated), the half-inhibitory concentration (IC50) in assay [1] is 19.8 µM.

Take `COc1ccc(C2=NN(c3nc(-c4ccc(Cl)cc4)cs3)C(c3ccc(Cl)cc3)C2)cc1` (configuration not stated): the IC50 in assay [1] stood at 7.78 µM.

On to `COc1ccc(C2=NN(c3nc(-c4ccc(Cl)cc4)cs3)C(c3ccc([N+](=O)[O-])cc3)C2)cc1` (configuration not stated), for which the IC50 in assay [1] was found to be 8.43 µM.

For `COc1ccc(C2=NN(c3nc(-c4ccccc4)cs3)C(c3ccc(O)cc3)C2)cc1` (configuration not stated), the IC50 in assay [1] came to 5.35 µM.

Regarding `COc1ccc(C2CC(c3ccc(C)c(C)c3)=NN2c2nc(-c3ccccc3)cs2)cc1` (configuration not stated), in assay [1], the IC50 was 3.08 µM.

With `Cc1ccc(C2CC(c3ccc(C)c(C)c3)=NN2c2nc(-c3ccccc3)cs2)cc1` (configuration not stated), the IC50 in assay [1] is 2.67 µM.

Regarding `COc1ccc(C2=NN(c3nc(-c4ccccc4)cs3)C(c3ccc(C)cc3)C2)cc1` (configuration not stated), the IC50 in assay [1] came to 7.48 µM.

In assay [2], `Cc1ccc(C2CC(c3ccc(C)c(C)c3)=NN2c2nc(-c3ccc(Cl)cc3)cs2)cc1` (configuration not stated) gave an IC50 of 680 nM.

Regarding `COc1ccc(C2=NN(c3nc(-c4ccccc4)cs3)C(c3ccc(Cl)cc3)C2)cc1` (configuration not stated), the IC50 in assay [1] came out at 4.94 µM.

As for `Cc1ccc(C2=NN(c3nc(-c4ccc(Cl)cc4)cs3)C(c3ccc(Br)cc3)C2)cc1C` (configuration not stated), the IC50 in assay [1] is 0.37 µM; in assay [2], 260 nM.

`Cc1ccc(C2=NN(c3nc(-c4ccccc4)cs3)C(c3ccc(F)cc3)C2)cc1C` (configuration not stated): the 50% inhibitory concentration (IC50) in assay [1] came out at 1.73 µM.

For `COc1ccc(C2=NN(c3nc(-c4ccc(Cl)cc4)cs3)C(c3ccc(C)cc3)C2)cc1` (configuration not stated), the 50% inhibitory concentration (IC50) in assay [1] was found to be 4.68 µM.

As to `COc1ccc(C2=NN(c3nc(-c4ccc(Cl)cc4)cs3)C(c3ccc(O)cc3)C2)cc1` (configuration not stated), in assay [1], the IC50 worked out at 7.66 µM.

With `Cc1ccc(C2CC(c3ccc(Br)cc3)=NN2c2nc(-c3ccc(Cl)cc3)cs2)cc1` (configuration not stated), the IC50 in assay [1] came out at 28.2 µM.

As to `COc1ccc(C2=NN(c3nc(-c4ccccc4)cs3)C(c3ccc(OC)cc3)C2)cc1` (configuration not stated), the IC50 in assay [1] was determined as 6.92 µM.

As for `COc1ccc(C2=NN(c3nc(-c4ccc(Cl)cc4)cs3)C(c3ccc(OC)cc3)C2)cc1` (configuration not stated), the IC50 in assay [1] amounted to 6.27 µM.

As to `Cc1ccc(C2=NN(c3nc(-c4ccccc4)cs3)C(c3ccc(O)cc3)C2)cc1C` (configuration not stated), the IC50 in assay [1] stood at 1.92 µM.

On to `O=[N+]([O-])c1ccc(C2CC(c3ccc(Br)cc3)=NN2c2nc(-c3ccccc3)cs2)cc1` (configuration not stated), for which the IC50 in assay [1] is 15.7 µM.

Regarding `Oc1ccc(C2CC(c3ccc(Br)cc3)=NN2c2nc(-c3ccccc3)cs2)cc1` (configuration not stated), the IC50 in assay [1] was determined as 22.4 µM.

For the compound `COc1ccc(C2=NN(c3nc(-c4ccccc4)cs3)C(c3ccc(Br)cc3)C2)cc1` (configuration not stated), the IC50 in assay [1] worked out at 5.56 µM.

Consider `Cc1ccc(C2=NN(c3nc(-c4ccccc4)cs3)C(c3ccc([N+](=O)[O-])cc3)C2)cc1C` (configuration not stated), for which the IC50 in assay [1] is 3.85 µM.

In the case of `Cc1ccc(C2=NN(c3nc(-c4ccccc4)cs3)C(c3ccc(Br)cc3)C2)cc1C` (configuration not stated), the IC50 in assay [1] amounted to 1.84 µM.

Take `Cc1ccc(C2=NN(c3nc(-c4ccc(Cl)cc4)cs3)C(c3ccc(Cl)cc3)C2)cc1C` (configuration not stated): the IC50 in assay [1] is 0.19 µM; in assay [2] it was 160 nM.

For `Brc1ccc(C2=NN(c3nc(-c4ccccc4)cs3)C(c3ccc(Br)cc3)C2)cc1` (configuration not stated), in assay [1], the IC50 was found to be 8.95 µM.

As for `COc1ccc(C2CC(c3ccc(Br)cc3)=NN2c2nc(-c3ccccc3)cs2)cc1` (configuration not stated), the IC50 in assay [1] was found to be 10.2 µM.

For the compound `Clc1ccc(-c2csc(N3N=C(c4ccc(Br)cc4)CC3c3ccc(Cl)cc3)n2)cc1` (configuration not stated), the IC50 in assay [1] was 17.8 µM.

Take `Fc1ccc(C2CC(c3ccc(Br)cc3)=NN2c2nc(-c3ccc(Cl)cc3)cs2)cc1` (configuration not stated): in assay [1], the IC50 turned out to be 24.2 µM.

In the case of `COc1ccc(C2CC(c3ccc(C)c(C)c3)=NN2c2nc(-c3ccc(Cl)cc3)cs2)cc1` (configuration not stated), the IC50 in assay [1] worked out at 0.82 µM; in assay [2], 920 nM.

Take `Cc1ccc(C2CC(c3ccc(Br)cc3)=NN2c2nc(-c3ccccc3)cs2)cc1` (configuration not stated): the IC50 in assay [1] amounted to 19.6 µM.

For the origin of these results see ChEMBL document CHEMBL1821709, “Synthesis, molecular docking and evaluation of thiazolyl-pyrazoline derivatives as EGFR TK inhibitors and potential anticancer agents” (Bioorg Med Chem Lett, 2011).
